Active and inactive are the calls of the source. The rule behind the calls is not given here.
Columns and labels:
[1] = Dark toxicity against human HeLa cells assessed as reduction in cell viability incubated for 24 hrs by MTT assay; type: cell-based
[2] = Phototoxicity ratio of IC50 for cytotoxicity against human PC-3 cells assessed as reduction in cell viability in dark to IC50 for phototoxicity against human PC-3 cells upon LED light irradiation; type: toxicity, cell-based
[3] = Phototoxicity against human Caco-2 cells assessed as reduction in cell viability preincubated for 24 hrs followed by 7 mins of LED light irradiation by MTT assay; type: toxicity, cell-based; conditions: Caco-2, light or radiation study
[4] = Dark toxicity against human NHDF cells assessed as reduction in cell viability incubated for 24 hrs by MTT assay; type: cell-based
[5] = Dark toxicity against human MCF7 cells assessed as reduction in cell viability incubated for 24 hrs by MTT assay; type: cell-based
[6] = Dark toxicity against human Caco-2 cells assessed as reduction in cell viability incubated for 24 hrs by MTT assay; type: cell-based
[7] = Selectivity ratio of IC50 for phototoxicity against human NHDF cells upon LED light irradiation to IC50 for phototoxicity against human Caco-2 cells upon LED light irradiation; type: toxicity, cell-based; conditions: NHDF cells versus Caco-2 cells, read-out: Ratio IC50
[8] = Phototoxicity ratio of IC50 for cytotoxicity against human MCF7 cells assessed as reduction in cell viability in dark to IC50 for phototoxicity against human MCF7 cells upon LED light irradiation; type: toxicity, cell-based
[9] = Phototoxicity against human PC-3 cells assessed as reduction in cell viability preincubated for 24 hrs followed by 7 mins of LED light irradiation by MTT assay; type: toxicity, cell-based; conditions: PC-3, light or radiation study
[10] = Phototoxicity ratio of IC50 for cytotoxicity against human NHDF cells assessed as reduction in cell viability in dark to IC50 for phototoxicity against human NHDF cells upon LED light irradiation; type: toxicity, cell-based; conditions: read-out: Ratio IC50
[11] = Phototoxicity ratio of IC50 for cytotoxicity against human Caco-2 cells assessed as reduction in cell viability in dark to IC50 for phototoxicity against human Caco-2 cells upon LED light irradiation; type: toxicity, cell-based
[12] = Selectivity ratio of IC50 for phototoxicity against human NHDF cells upon LED light irradiation to IC50 for phototoxicity against human HeLa cells upon LED light irradiation; type: toxicity, cell-based; conditions: NHDF cells versus HeLa cells, read-out: Ratio IC50
[13] = Phototoxicity against human MCF7 cells assessed as reduction in cell viability preincubated for 24 hrs followed by 7 mins of LED light irradiation by MTT assay; type: toxicity, cell-based; conditions: MCF7, light or radiation study
[14] = Phototoxicity against human HeLa cells assessed as reduction in cell viability preincubated for 24 hrs followed by 7 mins of LED light irradiation by MTT assay; type: toxicity, cell-based; conditions: light or radiation study
[15] = Phototoxicity ratio of IC50 for cytotoxicity against human HeLa cells assessed as reduction in cell viability in dark to IC50 for phototoxicity against human HeLa cells upon LED light irradiation; type: toxicity, cell-based
Albumin = Albumin (Homo sapiens, UniProt P02768); experiment: Binding affinity to human serum albumin assessed as binding constant by fluorescence based assay
[16] = Selectivity ratio of IC50 for phototoxicity against human NHDF cells upon LED light irradiation to IC50 for phototoxicity against human MCF7 cells upon LED light irradiation; type: toxicity, cell-based; conditions: NHDF cells versus MCF7 cells, read-out: Ratio IC50
[17] = Dark toxicity against human PC-3 cells assessed as reduction in cell viability incubated for 24 hrs by MTT assay; type: cell-based
[18] = Phototoxicity against human NHDF cells assessed as reduction in cell viability preincubated for 24 hrs followed by 7 mins of LED light irradiation by MTT assay; type: toxicity, cell-based
HeLa [19] = experiment: Induction of apoptosis in human HeLa cells assessed as increase in DNA cleavage at 1 uM preincubated for 24 hrs followed by 7 mins LED light irradiation and measured after 24 hrs by PI staining based flow cytometry analysis; type: functional; conditions: time 2887 min, 48.12 h
HeLa [20] = experiment: Induction of morphological change in human HeLa cells assessed as plasma membrane rupture at 1 uM preincubated for 24 hrs followed by 7 mins of LED light irradiation and measured upto 48 hrs by microscopic analysis; type: functional; conditions: time min <=4327
HeLa [21] = experiment: Induction of cell cycle arrest in human HeLa cells assessed as accumulation in S phase at 1 uM by PI staining based flow cytometry analysis (reference value: 32.14 %); type: functional
[22] = Drug localization in mitochondria of human HeLa cells at 1 uM incubated for 24 hrs by Rhodamine 123 based confocal laser scanning microscopy analysis; type: ADME
HeLa [23] = experiment: Induction of cell cycle arrest in human HeLa cells assessed as accumulation in G0/G1 phase at 0.25 uM by PI staining based flow cytometry analysis (reference value: 67.03 %); type: functional
HeLa [24] = experiment: Induction of morphological change in human HeLa cells assessed as rounded cell morphology at 0.25 uM preincubated for 24 hrs followed by 7 mins of LED light irradiation and measured upto 48 hrs by microscopic analysis; type: functional, cell-based; conditions: time min <=4327
HeLa [25] = experiment: Induction of cell cycle arrest in human HeLa cells assessed as accumulation in G0/G1 phase at 1 uM by PI staining based flow cytometry analysis (reference value: 67.03 %); type: functional
HeLa [26] = experiment: Induction of cell cycle arrest in human HeLa cells assessed as accumulation in G2/M phase at 1 uM by PI staining based flow cytometry analysis (reference value: 4.79 %); type: functional
HeLa [27] = experiment: Induction of cell cycle arrest in human HeLa cells assessed as accumulation in G2/M phase at 0.25 uM with red light radiation for 7 mins by PI staining based flow cytometry analysis (reference value: 4.73 %); type: functional
[28] = Selectivity ratio of IC50 for phototoxicity against human NHDF cells upon LED light irradiation to IC50 for phototoxicity against human PC-3 cells upon LED light irradiation; type: toxicity, cell-based; conditions: NHDF cells versus PC-3 cells, read-out: Ratio IC50
HeLa [29] = experiment: Induction of morphological change in human HeLa cells assessed as reduction in adhesion at 0.25 uM preincubated for 24 hrs followed by 7 mins of LED light irradiation and measured upto 48 hrs by microscopic analysis; type: functional, cell-based; conditions: time min <=4327
HeLa [30] = experiment: Induction of cell cycle arrest in human HeLa cells assessed as accumulation in S phase at 0.25 uM by PI staining based flow cytometry analysis (reference value: 32.14 %); type: functional
HeLa [31] = experiment: Induction of cell cycle arrest in human HeLa cells assessed as accumulation in G2/M phase at 0.25 uM by PI staining based flow cytometry analysis (reference value: 4.79 %); type: functional
HeLa [32] = experiment: Induction of cell cycle arrest in human HeLa cells assessed as accumulation of hypodiploid cells in sub-G1 phase at 0.25 to 1 uM measured after 24 hrs in the absence of light by PI staining based flow cytometry analysis; type: functional; conditions: dose 0.25-1 µM
HeLa [33] = experiment: Induction of morphological change in human HeLa cells assessed as intracellular space dilation at 1 uM preincubated for 24 hrs followed by 7 mins of LED light irradiation and measured upto 48 hrs by microscopic analysis; type: functional, cell-based; conditions: time min <=4327
HeLa [34] = experiment: Induction of morphological change in human HeLa cells assessed as cell shrinkage at 0.25 uM preincubated for 24 hrs followed by 7 mins of LED light irradiation and measured upto 48 hrs by microscopic analysis; type: functional, cell-based; conditions: time min <=4327
[35] = Drug localization in lysosome of human HeLa cells at 1 uM incubated for 24 hrs by Green Fluorescent Protein based confocal laser scanning microscopy analysis; type: ADME, subcellular
HeLa [36] = experiment: Induction of cell cycle arrest in human HeLa cells assessed as accumulation in G0/G1 phase at 0.25 uM with red light radiation for 7 mins by PI staining based flow cytometry analysis (reference value: 63.18%); type: functional
HeLa [37] = experiment: Induction of apoptosis in human HeLa cells at 0.25 uM preincubated for 24 hrs followed by 7 mins LED light irradiation and measured after 24 hrs by PI staining based flow cytometry analysis; type: functional; conditions: time 2887 min, 48.12 h
HeLa [38] = experiment: Induction of cell cycle arrest in human HeLa cells assessed as accumulation in S phase at 0.25 uM with red light radiation for 7 mins by PI staining based flow cytometry analysis (reference value: 32.09 %); type: functional
HeLa [39] = experiment: Induction of cell cycle arrest in human HeLa cells assessed as accumulation of hypodiploid cells in sub-G1 phase at 0.24 to 1 uM measured after 24 hrs in the absence of light by PI staining based flow cytometry analysis; type: functional; conditions: dose 0.24-1 µM

Sequence of Albumin (P02768 whole entry): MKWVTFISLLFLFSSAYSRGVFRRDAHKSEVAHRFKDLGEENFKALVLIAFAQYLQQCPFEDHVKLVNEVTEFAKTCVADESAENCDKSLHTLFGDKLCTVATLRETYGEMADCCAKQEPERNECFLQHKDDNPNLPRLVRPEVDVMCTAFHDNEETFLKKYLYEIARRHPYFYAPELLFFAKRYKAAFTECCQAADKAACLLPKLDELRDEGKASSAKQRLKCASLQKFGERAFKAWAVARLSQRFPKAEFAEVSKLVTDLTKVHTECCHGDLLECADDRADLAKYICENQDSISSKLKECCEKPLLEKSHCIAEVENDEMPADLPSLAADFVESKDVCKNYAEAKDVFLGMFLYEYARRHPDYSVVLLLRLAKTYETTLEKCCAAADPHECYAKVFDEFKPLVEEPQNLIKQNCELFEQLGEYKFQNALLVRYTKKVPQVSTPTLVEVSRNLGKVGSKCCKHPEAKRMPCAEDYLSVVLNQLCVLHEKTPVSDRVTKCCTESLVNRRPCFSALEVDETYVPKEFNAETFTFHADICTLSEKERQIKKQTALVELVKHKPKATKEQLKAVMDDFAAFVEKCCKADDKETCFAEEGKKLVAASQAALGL

Structure (SMILES)	IC50 at 24 h [1] [nM]	Ratio IC50 [2]	IC50 [3] [nM]	IC50 at 24 h [4] [nM]	IC50 at 24 h [5] [nM]	IC50 at 24 h [6] [nM]	selectivity ratio [7]	Ratio IC50 [8]	IC50 [9] [nM]	selectivity ratio [10]	Ratio IC50 [11]	selectivity ratio [12]	IC50 [13] [nM]	IC50 [14] [nM]	Ratio IC50 [15]	Kb (Albumin)	selectivity ratio [16]	IC50 at 24 h [17] [nM]	IC50 at 24 h [18] [nM]	selectivity ratio [28]	also measured
CCN1/C(=C/C2=C(N(Cc3ccccn3)Cc3ccccn3)C(=C/C3=[N+](CC)c4ccc5ccccc5c4C3(C)C)/C2=O)C(C)(C)c2c1ccc1ccccc21.[I-]	449	2.7	92	484	534	328	2	3.6	148	2.6	3.6	1.63	150	113	4	5.92 10^5/M	1.23	393	184	–	–
CCN1/C(=C/C2=C([O-])C(=C/C3=[N+](CC)c4ccc5ccccc5c4C3(C)C)/C2=O)C(C)(C)c2c1ccc1ccccc21	> 10000	> 52.6	332	> 10000	> 10000	> 10000	0.67	> 43.1	190	> 45	> 30.1	0.91	232	245	> 40.8	2.01 10^5/M	0.96	> 10000	222	1.17	Activity (HeLa [19]): 98%; Activity (HeLa [20]): Active; Activity (HeLa [21]): 25.92%; Drug uptake [22]: Active; Activity (HeLa [23]): 68.96%; Activity (HeLa [24]): Active; Activity (HeLa [25]): 70.47%; Activity (HeLa [26]): 3.61%; Activity (HeLa [27]): 9.71%; Activity (HeLa [29]): Active; Activity (HeLa [30]): 25.84%; Activity (HeLa [31]): 5.19%; Activity (HeLa [32]): 1%; Activity (HeLa [33]): Active; Activity (HeLa [34]): Active; Drug uptake [35]: Not Active; Activity (HeLa [36]): 58.79%; Activity (HeLa [37]): 17%; Activity (HeLa [38]): 31.5%
CCCCCCN1/C(=C/C2=C(NCc3ccccn3)C(=C/C3=[N+](CCCCCC)c4ccc5ccccc5c4C3(C)C)/C2=O)C(C)(C)c2c1ccc1ccccc21.[I-]	4780	1.3	4820	4300	3100	> 10000	0.26	1.4	1530	3.4	> 2.1	0.49	2290	2580	1.9	1.64 10^5/M	0.56	6690	1280	0.84	Activity (HeLa [39]): 1%
CCCCCCN1/C(=C/C2=C(N(Cc3ccccn3)Cc3ccccn3)C(=C/C3=[N+](CCCCCC)c4ccc5ccccc5c4C3(C)C)/C2=O)C(C)(C)c2c1ccc1ccccc21.[I-]	1740	1.1	2130	1010	1520	2490	0.33	1.3	967	1.4	1.2	0.59	1190	1170	1.5	7.68 10^5/M	0.59	1110	695	0.72	–

— ChEMBL document CHEMBL5042514, “Picolylamine-functionalized benz[e]indole squaraine dyes: Synthetic approach, characterization and in vitro efficacy as potential anticancer phototherapeutic agents” (Eur J Med Chem, 2022)
